Measured values: ChEMBL document CHEMBL1201861, “Genomics of Drug Sensitity in Cancer screening data, Wellcome Trust Sanger Institute”

Key:
Assay in all cases: cells
[1] = tested on: COLO-792; type: functional, cell-based, Homo sapiens; conditions: Homo sapiens, COLO-792
Description: SANGER: Inhibition of human COLO-792 cell growth in a cell viability assay.

[2] = tested on: CP50-MEL-B; type: functional, cell-based, Homo sapiens; conditions: Homo sapiens, CP50-MEL-B;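 also: growth inhibition of the human cell line, measured with a cell viability read-out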
Description: SANGER: Inhibition of human CP50-MEL-B cell growth in a cell viability assay.

[3] = tested on: CW-2; type: functional, cell-based, Homo sapiens; conditions: Homo sapiens, CW-2;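 also: growth inhibition of CW-2 cells, read out by a cell viability assay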
Description: SANGER: Inhibition of human CW-2 cell growth in a cell viability assay.

[4] = tested on: Ca-Ski; type: functional, cell-based; conditions: Homo sapiens;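 also: cell viability assay measuring inhibition of Ca-Ski cell growth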
Description: SANGER: Inhibition of human Ca-Ski cell growth in a cell viability assay.

[5] = tested on: Calu-6; type: functional, cell-based, Homo sapiens; conditions: Homo sapiens, Calu-6;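 also: growth of human Calu-6 cells, read out by a cell viability assay, IC50 marking inhibition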
Description: SANGER: Inhibition of human Calu-6 cell growth in a cell viability assay.

[6] = tested on: Capan-2; type: functional, cell-based, Homo sapiens; conditions: Homo sapiens, Capan-2;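 also: Capan-2 cell growth inhibition, read out with a viability assay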
Description: SANGER: Inhibition of human Capan-2 cell growth in a cell viability assay.

[7] = tested on: DOHH-2; type: functional, cell-based; conditions: Homo sapiens;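 also: growth inhibition of human DOHH-2 cells, read out with a cell viability assay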
Description: SANGER: Inhibition of human DOHH-2 cell growth in a cell viability assay.

[8] = tested on: Detroit 562; type: functional, cell-based, Homo sapiens; conditions: Homo sapiens, Detroit 562;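 also: growth inhibition of human Detroit 562 cells, read out by a cell viability assay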
Description: SANGER: Inhibition of human Detroit562 cell growth in a cell viability assay.

[9] = tested on: HCC1569; type: functional, cell-based, Homo sapiens; conditions: Homo sapiens, HCC1569;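 also: growth inhibition of human HCC1569 cells, read out with a cell viability assay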
Description: SANGER: Inhibition of human HCC1569 cell growth in a cell viability assay.

[10] = tested on: HCC2218; type: functional, cell-based; conditions: Homo sapiens;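 also: cell viability assay read-out, with IC50 given as the concentration that inhibits growth of the cell line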
Description: SANGER: Inhibition of human HCC2218 cell growth in a cell viability assay.

[11] = tested on: HCC 2998; type: functional, cell-based, Homo sapiens; conditions: Homo sapiens, HCC 2998;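 also: growth inhibition of human HCC2998 cells, measured with a cell viability read-out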
Description: SANGER: Inhibition of human HCC2998 cell growth in a cell viability assay.

[12] = tested on: HD-MY-Z; type: functional, cell-based, Homo sapiens; conditions: Homo sapiens, HD-MY-Z;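 also: growth inhibition of HD-MY-Z cells, read out with a cell viability assay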
Description: SANGER: Inhibition of human HD-MY-Z cell growth in a cell viability assay.

[13] = tested on: HO-1-N-1; type: functional, cell-based, Homo sapiens; conditions: Homo sapiens, HO-1-N-1;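 also: growth inhibition of human HO-1-N-1 cells, read out with a cell viability assay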
Description: SANGER: Inhibition of human HO-1-N-1 cell growth in a cell viability assay.

[14] = tested on: HT-1080; type: functional, cell-based, Homo sapiens; conditions: Homo sapiens, HT-1080
Description: SANGER: Inhibition of human HT-1080 cell growth in a cell viability assay.

[15] = tested on: IGROV-1; type: functional, cell-based, Homo sapiens; conditions: Homo sapiens, IGROV-1;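 also: reduction of IGROV-1 cell growth, read out with a viability assay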
Description: SANGER: Inhibition of human IGROV-1 cell growth in a cell viability assay.

[16] = tested on: IST-SL1; type: functional, cell-based, Homo sapiens; conditions: Homo sapiens, IST-SL1;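 also: growth inhibition of human IST-SL1 cells, read out with a cell viability assay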
Description: SANGER: Inhibition of human IST-SL1 cell growth in a cell viability assay.

[17] = tested on: JAR; type: functional, cell-based, Homo sapiens; conditions: Homo sapiens, JAR;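 also: growth inhibition of human JAR cells determined with a cell viability assay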
Description: SANGER: Inhibition of human JAR cell growth in a cell viability assay.

[18] = tested on: KALS-1; type: functional, cell-based, Homo sapiens; conditions: Homo sapiens, KALS-1;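 also: growth inhibition of KALS-1 cells, determined with a cell viability assay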
Description: SANGER: Inhibition of human KALS-1 cell growth in a cell viability assay.

[19] = tested on: KINGS-1; type: functional, cell-based, Homo sapiens; conditions: Homo sapiens, KINGS-1;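 also: cell viability assay measuring suppression of KINGS-1 cell growth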
Description: SANGER: Inhibition of human KINGS-1 cell growth in a cell viability assay.

[20] = tested on: KS-1; type: functional, cell-based, Homo sapiens; conditions: Homo sapiens, KS-1;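 also: growth inhibition of KS-1 cells, read out with a cell viability assay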
Description: SANGER: Inhibition of human KS-1 cell growth in a cell viability assay.

[21] = tested on: KYSE-510; type: functional, cell-based, Homo sapiens; conditions: Homo sapiens, KYSE-510;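 also: cell viability readout used to measure how strongly growth of the cell line is suppressed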
Description: SANGER: Inhibition of human KYSE-510 cell growth in a cell viability assay.

[22] = tested on: LB2518-MEL; type: functional, cell-based, Homo sapiens; conditions: Homo sapiens, LB2518-MEL;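 also: growth inhibition of human LB2518-MEL cells, measured with a cell viability assay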
Description: SANGER: Inhibition of human LB2518-MEL cell growth in a cell viability assay.

[23] = tested on: LS-411N; type: functional, cell-based, Homo sapiens; conditions: Homo sapiens, LS-411N
[24] = tested on: LXF-289 cell line; type: functional, cell-based, Homo sapiens; conditions: Homo sapiens, LXF-289
Description: SANGER: Inhibition of human LXF-289 cell growth in a cell viability assay.

[25] = tested on: MLMA; type: functional, cell-based, Homo sapiens; conditions: Homo sapiens, MLMA;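 also: growth inhibition of MLMA cells (human), determined through a cell viability readout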
Description: SANGER: Inhibition of human MLMA cell growth in a cell viability assay.

[26] = tested on: MZ7-mel; type: functional, cell-based, Homo sapiens; conditions: Homo sapiens, MZ7-mel;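 also: growth inhibition of human MZ7-mel cells, measured by a cell viability assay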
Description: SANGER: Inhibition of human MZ7-mel cell growth in a cell viability assay.

[27] = tested on: Mo; type: functional, cell-based; conditions: Homo sapiens
Description: SANGER: Inhibition of human Mo-T cell growth in a cell viability assay.

[28] = tested on: NCI-H1395; type: functional, cell-based, Homo sapiens; conditions: Homo sapiens, NCI-H1395;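 also: cell viability assay read-out quantifying reduced proliferation of human NCI-H1395 cells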
Description: SANGER: Inhibition of human NCI-H1395 cell growth in a cell viability assay.

[29] = tested on: NCI-H1623; type: functional, cell-based, Homo sapiens; conditions: Homo sapiens, NCI-H1623;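 also: cell viability assay used as the read-out for growth inhibition of NCI-H1623 cells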
Description: SANGER: Inhibition of human NCI-H1623 cell growth in a cell viability assay.

[30] = tested on: NCI-H1651; type: functional, cell-based, Homo sapiens; conditions: Homo sapiens, NCI-H1651;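 also: Read-out is a cell viability assay, with IC50 expressing inhibition of NCI-H1651 cell growth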
Description: SANGER: Inhibition of human NCI-H1651 cell growth in a cell viability assay.

[31] = tested on: NCI-H2126; type: functional, cell-based, Homo sapiens; conditions: Homo sapiens, NCI-H2126;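 also: growth inhibition of the cancer cell line, determined with a cell viability readout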
Description: SANGER: Inhibition of human NCI-H2126 cell growth in a cell viability assay.

[32] = tested on: NCI-H661; type: functional, cell-based, Homo sapiens; conditions: Homo sapiens, NCI-H661;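 also: cell viability assay read-out, IC50 being the concentration that inhibits growth of the cells by half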
Description: SANGER: Inhibition of human NCI-H661 cell growth in a cell viability assay.

[33] = tested on: SNU-5; type: functional, cell-based; conditions: Homo sapiens;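 also: cell viability readout used to measure growth inhibition in human NCI-SNU-5 cells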
Description: SANGER: Inhibition of human NCI-SNU-5 cell growth in a cell viability assay.

[34] = tested on: OE19; type: functional, cell-based, Homo sapiens; conditions: Homo sapiens, OE19;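 also: growth inhibition of OE19 cells, measured through a cell viability read-out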
Description: SANGER: Inhibition of human OE19 cell growth in a cell viability assay.

[35] = tested on: PC-3; type: functional, cell-based, Homo sapiens; conditions: Homo sapiens, PC-3;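 also: cell viability assay measuring growth inhibition of PC-3 cells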
Description: SANGER: Inhibition of human PC-3 cell growth in a cell viability assay.

[36] = tested on: RCM-1; type: functional, cell-based, Homo sapiens; conditions: Homo sapiens, RCM-1;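 also: growth inhibition of the RCM-1 line, determined with a cell viability readout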
Description: SANGER: Inhibition of human RCM-1 cell growth in a cell viability assay.

[37] = tested on: SK-MEL3; type: functional, cell-based, Homo sapiens, SK-MEL-3; conditions: Homo sapiens, SK-MEL3;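 also: growth inhibition of human SK-MEL-3 cells, read out with a cell viability assay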
Description: SANGER: Inhibition of human SK-MEL-3 cell growth in a cell viability assay.

[38] = tested on: SK-NEP-1; type: functional, cell-based; conditions: Homo sapiens;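 also: growth inhibition of human SK-NEP-1 cells, read out by a cell viability assay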
Description: SANGER: Inhibition of human SK-NEP-1 cell growth in a cell viability assay.

[39] = tested on: SW1088; type: functional, cell-based, Homo sapiens; conditions: Homo sapiens, SW1088;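 also: growth inhibition of human SW1088 cells, read out by a cell viability assay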
Description: SANGER: Inhibition of human SW1088 cell growth in a cell viability assay.

[40] = tested on: T-24; type: functional, cell-based, Homo sapiens; conditions: Homo sapiens, T-24;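 also: growth inhibition of T-24 cells, read out with a cell viability assay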
Description: SANGER: Inhibition of human T-24 cell growth in a cell viability assay.

[41] = tested on: T47D; type: functional, cell-based, Homo sapiens; conditions: Homo sapiens, T47D;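 also: growth inhibition of human T47D cells, measured with a cell viability assay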
Description: SANGER: Inhibition of human T47D cell growth in a cell viability assay.

[42] = tested on: A-427; type: functional, cell-based, Homo sapiens; conditions: Homo sapiens, A-427;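 also: growth inhibition of human A-427 cells, read out by a cell viability assay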
Description: SANGER: Inhibition of human A427 cell growth in a cell viability assay.

[43] = tested on: AU565; type: functional, cell-based, Homo sapiens; conditions: Homo sapiens, AU565;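 also: cell viability assay measuring growth inhibition of human AU565 cells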
Description: SANGER: Inhibition of human AU565 cell growth in a cell viability assay.

[44] = tested on: BB49-HNC; type: functional, cell-based, Homo sapiens; conditions: Homo sapiens, BB49-HNC;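 also: cell viability assay read-out, reported as inhibition of BB49-HNC cell growth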
Description: SANGER: Inhibition of human BB49-HNC cell growth in a cell viability assay.

[45] = tested on: BEN; type: functional, cell-based, Homo sapiens; conditions: Homo sapiens, BEN;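 also: growth inhibition of the BEN cell line, read out with a cell viability assay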
Description: SANGER: Inhibition of human BEN cell growth in a cell viability assay.

[46] = tested on: BFTC-909; type: functional, cell-based, Homo sapiens; conditions: Homo sapiens, BFTC-909
Description: SANGER: Inhibition of human BFTC-909 cell growth in a cell viability assay.

[47] = tested on: BPH-1; type: functional, cell-based, Homo sapiens; conditions: Homo sapiens, BPH-1;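 also: cell viability assay measuring growth inhibition of human BPH-1 cells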
Description: SANGER: Inhibition of human BPH-1 cell growth in a cell viability assay.

[48] = tested on: C8166; type: functional, cell-based; conditions: Homo sapiens;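 also: growth inhibition of human C8166 cells measured by a cell viability assay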
Description: SANGER: Inhibition of human C8166 cell growth in a cell viability assay.

[49] = tested on: YKG-1; type: functional, cell-based, Homo sapiens; conditions: Homo sapiens, YKG-1;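 also: cell growth inhibition, read out with a viability assay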
Description: SANGER: Inhibition of human YKG-1 cell growth in a cell viability assay.

Compound: COc1ccc(C2=N[C@@H](c3ccc(Cl)cc3)[C@@H](c3ccc(Cl)cc3)N2C(=O)N2CCNC(=O)C2)c(OC(C)C)c1 [NUTLIN-3]
- IC50 [1]: > 8 µM
- IC50 [2]: 4.24 µM
- IC50 [3]: > 8 µM
- IC50 [4]: > 8 µM
- IC50 [5]: > 8 µM
- IC50 [6]: > 8 µM
- IC50 [7]: 2.42 µM
- IC50 [8]: > 8 µM
- IC50 [9]: > 8 µM
- IC50 [10]: 7.63 µM
- IC50 [11]: > 8 µM
- IC50 [12]: > 8 µM
- IC50 [13]: > 8 µM
- IC50 [14]: 7.48 µM
- IC50 [15]: > 8 µM
- IC50 [16]: > 8 µM
- IC50 [17]: > 8 µM
- IC50 [18]: > 8 µM
- IC50 [19]: > 8 µM
- IC50 [20]: 3.02 µM
- IC50 [21]: > 8 µM
- IC50 [22]: > 8 µM
- IC50 [23]: > 8 µM
- IC50 [24]: > 8 µM
- IC50 [25]: > 8 µM
- IC50 [26]: > 8 µM
- IC50 [27]: > 8 µM
- IC50 [28]: > 8 µM
- IC50 [29]: > 8 µM
- IC50 [30]: > 8 µM
- IC50 [31]: > 8 µM
- IC50 [32]: 7.87 µM
- IC50 [33]: > 8 µM
- IC50 [34]: > 8 µM
- IC50 [35]: > 8 µM
- IC50 [36]: > 8 µM
- IC50 [37]: > 8 µM
- IC50 [38]: > 8 µM
- IC50 [39]: > 8 µM
- IC50 [40]: > 8 µM
- IC50 [41]: > 8 µM
- IC50 [42]: 6.88 µM
- IC50 [43]: > 8 µM
- IC50 [44]: > 8 µM
- IC50 [45]: > 8 µM
- IC50 [46]: > 8 µM
- IC50 [47]: > 8 µM
- IC50 [48]: > 8 µM
- IC50 [49]: > 8 µM

Compound: O=C1N=C(NCc2cccs2)S/C1=C\c1ccc2ncccc2c1
- IC50 [1]: > 5 µM
- IC50 [2]: > 5 µM
- IC50 [3]: > 5 µM
- IC50 [4]: > 5 µM
- IC50 [5]: > 5 µM
- IC50 [6]: > 5 µM
- IC50 [7]: > 5 µM
- IC50 [8]: > 5 µM
- IC50 [9]: > 5 µM
- IC50 [10]: > 5 µM
- IC50 [11]: > 5 µM
- IC50 [12]: > 5 µM
- IC50 [13]: > 5 µM
- IC50 [14]: > 5 µM
- IC50 [15]: > 5 µM
- IC50 [16]: > 5 µM
- IC50 [17]: > 5 µM
- IC50 [18]: > 5 µM
- IC50 [19]: > 5 µM
- IC50 [20]: > 5 µM
- IC50 [21]: > 5 µM
- IC50 [22]: > 5 µM
- IC50 [23]: > 5 µM
- IC50 [24]: 4.22 µM
- IC50 [25]: > 5 µM
- IC50 [26]: > 5 µM
- IC50 [27]: > 5 µM
- IC50 [28]: > 5 µM
- IC50 [29]: > 5 µM
- IC50 [30]: > 5 µM
- IC50 [31]: > 5 µM
- IC50 [32]: > 5 µM
- IC50 [33]: > 5 µM
- IC50 [34]: > 5 µM
- IC50 [35]: > 5 µM
- IC50 [36]: > 5 µM
- IC50 [37]: > 5 µM
- IC50 [38]: > 5 µM
- IC50 [39]: > 5 µM
- IC50 [40]: > 5 µM
- IC50 [41]: > 5 µM
- IC50 [42]: > 5 µM
- IC50 [43]: > 5 µM
- IC50 [44]: > 5 µM
- IC50 [45]: > 5 µM
- IC50 [46]: > 5 µM
- IC50 [47]: 2.97 µM
- IC50 [48]: > 5 µM
- IC50 [49]: > 5 µM

Compound: COc1ccc(-c2ccc3c(N4CCOC[C@@H]4C)nc(N4CCOC[C@@H]4C)nc3n2)cc1CO [AZD-8055]
- IC50 [1]: > 2 µM
- IC50 [2]: 0.884 µM
- IC50 [3]: > 2 µM
- IC50 [4]: > 2 µM
- IC50 [5]: > 2 µM
- IC50 [6]: > 2 µM
- IC50 [7]: 0.793 µM
- IC50 [8]: 1.19 µM
- IC50 [9]: 0.852 µM
- IC50 [10]: 0.207 µM
- IC50 [11]: 1.93 µM
- IC50 [12]: 0.841 µM
- IC50 [13]: 0.681 µM
- IC50 [14]: 0.525 µM
- IC50 [15]: 0.675 µM
- IC50 [16]: > 2 µM
- IC50 [17]: > 2 µM
- IC50 [18]: > 2 µM
- IC50 [19]: > 2 µM
- IC50 [20]: 1.25 µM
- IC50 [21]: > 2 µM
- IC50 [22]: > 2 µM
- IC50 [23]: 1.15 µM
- IC50 [24]: 0.25 µM
- IC50 [25]: > 2 µM
- IC50 [26]: > 2 µM
- IC50 [27]: > 2 µM
- IC50 [28]: > 2 µM
- IC50 [29]: 0.763 µM
- IC50 [30]: > 2 µM
- IC50 [31]: 1.68 µM
- IC50 [32]: 1.45 µM
- IC50 [33]: > 2 µM
- IC50 [34]: > 2 µM
- IC50 [35]: 0.722 µM
- IC50 [36]: > 2 µM
- IC50 [37]: 1.25 µM
- IC50 [38]: 0.625 µM
- IC50 [39]: 1.37 µM
- IC50 [40]: > 2 µM
- IC50 [41]: 0.275 µM
- IC50 [42]: 0.962 µM
- IC50 [43]: > 2 µM
- IC50 [44]: 1.75 µM
- IC50 [45]: 0.213 µM
- IC50 [46]: 1.29 µM
- IC50 [47]: 0.884 µM
- IC50 [48]: > 2 µM
- IC50 [49]: 1.61 µM
